Assay results as given in patent US9175355B2, “Methods for determining the presence of antibodies blocking viral infection” (Monogram Biosciences, Inc., priority 2002, dated 2015).

Key:
[1] = tested on: HIV-1 (NL4-3, JRCSF) with mutations in the GIV motif of gp41; assay: Virus entry assay: T-20 susceptibility of site directed gp41 mutant viruses; type: cell-based; details: cells expressing CD4, CCR5 and CXCR4; luciferase; compared by IC50
Protocol: Susceptibility assays for HIV-1 entry inhibitors were performed using packaging host cells consisting of the human embryonic kidney cell line 293 (Cell Culture Facility, UC San Francisco, SF, CA) and target host cells consisting of a human osteosarcoma (HOS) cell line expressing CD4 (HT4) plus CCR5, and CXCR4, or astrocytoma (U-87) cell lines expressing either CD4 and CCR5 or CD4 and CXCR4.
Drug susceptibility testing was performed using pHIVenv and pHIVluc or pHIVlucΔU3. Pseudotyped HIV particles containing envelope proteins encoded by the patient derived segment were produced by transfecting a packaging host cell (HEK 293) with resistance test vector DNA. […] After infection (˜72 h) the target cells are lysed and luciferase activity is measured. […] The amount of luciferase activity detected in the infected cells is used as a direct measure of “infectivity” (FIGS. 1 and 2). […] Drug susceptibility is assessed by comparing the infectivity in the absence of drug to infectivity in the presence of drug. Relative drug susceptibility can be quantified by comparing the susceptibility of the “test” virus to the susceptibility of a well-characterized reference virus (wildtype) derived from a molecular clone of HIV-1, for example NL4-3 or HXB2. […]

[2] = tested on: X4 tropic viruses; details: inhibitory concentration of drug; U87/CD4/CXCR4
Protocol: One cell line expresses CD4 plus CCR5 (U87/CD4/CCR5), also referred to as R5 cells in this application. The other cell line expresses CD4 and CXCR4 (U87/CD4/CXCR4) also referred to as X4 cells in this application. The virus entry assay is performed by infecting individual cell cultures with recombinant virus stocks derived from cells transfected with pHIVenv and pHIV luc or pHIVlucΔU3 vectors. pHIVenv vectors contain patient virus derived sequences and express HIV-1 envelope proteins (gp120SU, gp41TM). In this embodiment viruses are evaluated in using R5 and X4 target cells cultured in 96 well plates (FIG. 3A). Typically, R5 and X4 cells are plated one day prior to infection. […] Co-receptor tropism is assessed by comparing the amount of luciferase activity produced in each cell type, both in the presence and absence of drug. In this embodiment, the results of the assay are interpreted by comparing the ability of each virus to preferentially infect (produce luciferase activity) R5 cells or X4 cells, or both X4 and R5 cells if the virus is dual tropic. The ability of the CCR5 or CXCR4 inhibitor to specifically block infection (inhibit luciferase activity) is also evaluated (FIG. 3B).

Row | Compound | T-20 susceptibility of viruses with one mutation in gp41 motif (DIV, GIM, SIV) vs wildtype virus (GIV) [1] | T-20 susceptibility of viruses with two mutations in GIV motif (DIM, SIM, DTV) vs viruses with one or no mutations [1] | Infection of X4 cells by X4 tropic viruses (luciferase activity) [2]
1 | enfuvirtide | less susceptible | less susceptible | 
2 | c1cc(CN2CCCNCCNCCCNCC2)ccc1CN1CCCNCCNCCCNCC1 [AMD3100] |  |  | blocked
